Where two headings read alike, the source gives them in different places.
Biological target: T1, WT PfMDH (Plasmodium falciparum, UniProt Q6VVP7)
T1 construct: The full-length WT PfMDH gene was cloned into pETM-13; made in house; host or cells: E. coli Rosetta 2 (DE3) pLysS
Test: Activity screening of 4DT / 4-phenylthiazol-2-amine derivatives (oxidation of malate, absorbance at 340 nm)
Assay type: biochemical
Conditions: for inhibition at 500 µM: Dunnett's multiple comparisons test, read-out: Mean Diff. (positive control vs. compound); for Slope repl1 / Slope repl2: linear regression slope of absorbance 340 nm vs time; for Slope normalized repl1: slope relative to control = 1, replicate 1; for Slope normalized repl2: slope relative to control = 1, replicate 2
Experimental: The oxidation of malate to oxaloacetate was assayed spectrophotometrically in flat-bottomed Corning 96-well microplates in a total volume of 250.0 µl in 50 mM glycine buffer pH 10.2[24] with an additional 400 mM NaCl for protein stability. The increase of absorbance at 340 nm was recorded in kinetic mode using a Tecan Spark multimode microplate reader at 298 K. A mastermix of 50 mM NAD+ and 44 μM PfMDH was used for both the screening and kinetics experiments. The final concentration of protein and cofactor were […], respectively. Positive control groups were set (absence of compound) in the same plate as the treated group. The absorbance from the background noise was subtracted from the data and then a linear regression model was employed in order to get the line slope from the first 5 min of the reaction. The percentage of enzymatic activity has been calculated as described by Eq. (1)1 enzymeactivity(%)=slopetreated/slopepositivecontrol*100
1.3 µL of derivatives of 4-phenylthiazol-2-amine in 100% DMSO were mixed with 237.7 µL of a mastermix of WT PfMDH previously incubated with NAD+. The final compound concentration used in this screening was 500 µM in the presence of 0.5% (v/v) DMSO. The microplate was sealed with silver foil for 1-h incubation at 25–35 °C. Finally, reactions in both the samples and control wells were started upon the addition of 13.0 µL of 5 mM malate). At the end of the experiments, the reaction of the plate was spectrophotometrically assayed at 600 nm in order to identify turbidity due to the low solubility of the compound. All measurements were performed in duplicate.

[1] = 500 µM compound, Dunnett test details, positive control mean 100, n 2, read-out: Mean 2 (mean % enzymatic activity of treated group)
[2] = 500 µM compound, control 100%, replicate 1, read-out: % enzymatic activity repl1
[3] = 500 µM compound, control 100%, replicate 2, read-out: % enzymatic activity repl2

T1 sequence (Q6VVP7 entry or part of it): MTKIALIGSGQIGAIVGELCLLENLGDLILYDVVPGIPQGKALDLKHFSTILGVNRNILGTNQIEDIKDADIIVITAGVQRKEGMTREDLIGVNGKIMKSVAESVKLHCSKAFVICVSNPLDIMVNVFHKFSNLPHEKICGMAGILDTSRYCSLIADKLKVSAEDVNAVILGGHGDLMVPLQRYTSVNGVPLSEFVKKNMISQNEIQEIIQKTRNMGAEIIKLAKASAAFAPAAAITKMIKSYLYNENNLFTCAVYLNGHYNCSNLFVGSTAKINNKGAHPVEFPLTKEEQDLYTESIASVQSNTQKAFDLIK

| Structure (SMILES) | remaining activity at 500 µM [1] [%] | inhibition at 500 µM (500 µM compound) [%] | remaining activity at 500 µM [2] [%] | remaining activity at 500 µM [3] [%] | Slope repl1 (500 µM compound, replicate 1) | Slope repl2 (500 µM compound, replicate 2) | Slope normalized repl1 (500 µM compound) | Slope normalized repl2 (500 µM compound) | remaining activity at 500 µM (read-out: enzyme activity) [%] |
| --- | --- | --- | --- | --- | --- | --- | --- | --- | --- |
| O=C(O)c1nc(-c2ccccc2)cs1 [4a] | 65 | 35 | 64 | 66 | 0.02124 | 0.02324 | 0.6376 | 0.6632 | 65 |
| CC(C)(C)OC(=O)CNC(=O)c1cc(-c2cccs2)on1 [4b] | 21 | 79.5 | 22 | 19 | 0.007266 | 0.006583 | 0.2181 | 0.1879 | 20 |
| Nc1cc(-c2ccccc2)[nH]n1 [5b] | 53 | 47.5 | 63 | 42 | 0.02092 | 0.01483 | 0.628 | 0.4232 | 53 |
| Nc1nc(-c2ccc(Cl)c(Cl)c2)cs1 [7a] | 24 | 76.5 | 26 | 21 | 0.008711 | 0.007289 | 0.2615 | 0.208 | 23 |
